Laboratory results as given in patent US10508077B2 (FORMA Therapeutics, Inc., priority 2015, dated 2019).

What follows are compounds tested against T1, Full length human recombinant HDAC8 protein (Homo sapiens, UniProt Q9BY41) (assay: In vitro histone deacetylase assay: enzymatic HDAC8 assay, electrophoretic mobility shift). Conditions: substrate RHKK(Ac)-NH2, 1 nM enzyme, compounds listed under IC50 range headings.
T1 construct: Full length human recombinant HDAC8 protein was expressed in baculoviral system; made in house
T1 sequence (Q9BY41 1-377): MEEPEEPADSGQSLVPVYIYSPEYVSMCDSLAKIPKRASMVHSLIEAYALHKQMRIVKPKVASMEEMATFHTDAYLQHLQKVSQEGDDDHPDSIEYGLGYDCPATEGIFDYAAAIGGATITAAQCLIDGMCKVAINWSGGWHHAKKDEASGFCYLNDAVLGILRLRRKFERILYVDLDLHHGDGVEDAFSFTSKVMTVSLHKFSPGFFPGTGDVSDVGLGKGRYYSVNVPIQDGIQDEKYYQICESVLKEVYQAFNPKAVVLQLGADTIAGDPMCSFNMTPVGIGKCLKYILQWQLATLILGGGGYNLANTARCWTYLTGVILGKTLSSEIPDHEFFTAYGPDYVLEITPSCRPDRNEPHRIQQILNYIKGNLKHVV
Format: biochemical
Method: The enzymatic HDAC8 assay was performed using electrophoretic mobility shift assay. Full length human recombinant HDAC8 protein was expressed in baculoviral system and purified by affinity chromatography. The enzymatic reactions were assembled in 384 well plates in a total volume of 25 μL in a reaction buffer composing: 100 mM HEPES, pH7.5, 25 mM KC, 0.1% bovine serum albumin, 0.01% Triton X-100, 1% DMSO (from compounds) 2 μM of the fluorescently labeled peptide substrate and enzyme. The enzyme was added at a final concentration of 1 nM. The peptide substrate RHKK(Ac)-NH2 was used. The compounds were tested at 12 concentrations spaced by 3× dilution intervals. Negative control samples (0%-inhibition in the absence of inhibitor) and positive control samples (100%-inhibition) were assembled in replicates of four in each assay plate. The reactions were incubated at 25° C. and quenched by the addition of 45 μL of termination buffer (100 mM HEPES, pH 7.5, 0.01% Triton X-100, 0.05% SDS).
The terminated assay plates were analyzed on LabChip® 3000 microfluidic electrophoresis instrument (Perkin Elmer/Caliper Life Sciences). The fluorescence intensity of the electrophoretically separated de-acetylated product and substrate peptide was measured. Activity in each sample was determined as the product to sum ratio (PSR): P/(S+P), where P is the peak height of the product peptide and S is the peak height of the substrate peptide. Percent inhibition (Pinh) is determined using the following equation: Pinh=(PSR0%−PSRinh)/(PSR0%−PSR100%)*100, where PSRinh is the product sum ratio in the presence of inhibitor, PSR0% is the average product sum ration in the absence of inhibitor and PSR 100% is the average product sum ratio in 100%-inhibition control samples. The IC50 values of inhibitors were determined by fitting the %-inhibition curves with 4 parameter dose-response model using XLfit 4 software. Ranges of IC50 values for compounds of the invention are disclosed in Table 26.

Row | IC50 [nM] | SMILES
1 | 1000 to 10000 | O=C(/C=C/c1ccccc1N1CCN(C(=O)C2(c3ccccc3)CC2)CC1)NO [Example I-36, (E)-N-hydroxy-3-(2-(4-(1-phenylcyclopropane-1-carbonyl)piperazin-1-yl)phenyl)acrylamide]
2 | 1000 to 10000 | O=C(/C=C/c1ccccc1N1CCN(C(=O)C2(c3ccccc3)CCC2)CC1)NO [Example I-37, (E)-N-hydroxy-3-(2-(4-(1-phenylcyclobutane-1-carbonyl)piperazin-1-yl)phenyl)acrylamide]
3 | 1000 to 10000 | O=C(/C=C/c1ccccc1NC(=O)c1nccn1-c1ccccc1C(F)(F)F)NO [Example I-38, (E)-N-(2-(3-(hydroxyamino)-3-oxoprop-1-en-1-yl)phenyl)-1-(2-(trifluoromethyl)phenyl)-1H-imidazole-2-carboxamide]
4 | < 1000 | O=C(/C=C/c1ccccc1NCc1nc2ccccc2[nH]1)NO [Example I-39, (E)-3-(2-(((1H-benzo[d]imidazol-2-yl)methyl)amino)phenyl)-N-hydroxyacrylamide]
5 | < 1000 | CC(=O)Nc1cccc(C(=O)Nc2ccccc2/C=C/C(=O)NO)c1 [Example I-42, (E)-3-acetamido-N-(2-(3-(hydroxyamino)-3-oxoprop-1-en-1-yl)phenyl)benazmide]
6 | < 1000 | O=C(/C=C/c1ccccc1NCc1cccc(C(F)(F)F)c1)NO [Example I-46, (E)-N-hydroxy-3-(2-((3-(trifluoromethyl)benzyl)amino)phenyl)acrylamide]
7 | < 1000 | CC(C)(C)OC(=O)N1CCC2(CCC(C(=O)Nc3ccccc3/C=C/C(=O)NO)CC2)CC1 [Example I-47, tert-butyl-(E)-9-((2-(3-(hydroxyamino)-3-oxoprop-1-en-1-yl)phenyl)carbamoyl)-3-azaspiro[5.4]undecane-3-carboxylate]
8 | < 1000 | CC(C)(C)OC(=O)N1CCC2(CC1)CCN(c1ccccc1/C=C/C(=O)NO)CC2 [Example I-50, tert-butyl-(E)-9-(2-(3-(hydroxyamino)-3-oxoprop-1-en-1-yl)phenyl)-3,9-diazaspiro[5.5]undecane-3-carboxylate]
9 | < 1000 | N#Cc1ccc2nc(CNc3ccccc3/C=C/C(=O)NO)[nH]c2c1 [Example I-51]
10 | < 1000 | O=C(/C=C/c1ccccc1N1CCC2(CCNCC2)CC1)NO [Example I-52, (E)-3-(2-(3,9-diazaspiro[5.5]undecan-3-yl)phenyl)-N-hydroxyacrylamide 2,2,2-trifluoroacetate]
11 | < 1000 | NC(=O)CCc1cccc(CNc2ccccc2/C=C/C(=O)NO)c1 [Example I-53, (E)-3-(2-((3-(3-amino-3-oxopropyl)benzyl)amino)phenyl)-N-hydroxyacrylamide]
12 | < 1000 | O=C(/C=C/c1ccccc1NCC1CCCCC1)NO [Example I-55, (E)-3-(2-((cyclohexylmethyl)amino)phenyl)-N-hydroxyacrylamide]
13 | < 1000 | O=C(/C=C/c1ccccc1NC(=O)C1CCCCC1)NO [Example I-56, (E)-N-(2-(3-(hydroxyamino)-3-oxoprop-1-en-1-yl)phenyl)cyclohexanecarboxamide]
14 | < 1000 | O=C(/C=C/c1ccccc1N1CCCCC1)NO [Example I-57, (E)-N-hydroxy-3-(2-(piperidin-1-yl)phenyl)acrylamide]
15 | < 1000 | CC(C)(C)OC(=O)N1CCN(c2ccccc2/C=C/C(=O)NO)CC1 [Example I-58, tert-butyl (E)-4-(2-(3-(hydroxyamino)-3-oxoprop-1-en-1-yl)phenyl)piperazine-1-carboxylate]
16 | < 1000 | O=C(/C=C/c1ccccc1N1CCNCC1)NO [Example I-59, (E)-N-hydroxy-3-(2-(piperazin-1-yl)phenyl)acrylamide 2,2,2-trifluoroacetate]
17 | < 1000 | CC(C)(C)OC(=O)NC1CCN(c2ccccc2/C=C/C(=O)NO)CC1 [Example I-60, tert-butyl (E)-(1-(2-(3-(hydroxyamino)-3-oxoprop-1-en-1-yl)phenyl)piperidin-4-yl)carbamate]
18 | < 1000 | CC(C(=O)Nc1ccccc1/C=C/C(=O)NO)N1CCS(=O)(=O)CC1 (centres unmarked) [Example I-63, (E)-3-(2-(2-(1,1-dioxidothiomorpholino)propanamide)phenyl)-N-hydroxyacrylamide]

Row | IC50 [nM] | SMILES
19 | < 1000 | O=C(/C=C/c1ccccc1NC(=O)C1(c2ccccc2)CC1)NO [Example I-64, (E)-N-(2-(3-(hydroxyamino)-3-oxoprop-1-en-1-yl)phenyl)-1-phenylcyclopropane-1-carboxamide]
20 | < 1000 | O=C(/C=C/c1ccccc1NC(=O)c1cc2n(n1)CCC2)NO [Example I-74, (E)-N-(2-(3-(hydroxyamino)-3-oxoprop-1-en-1-yl)phenyl)-5,6-dihydro-4H-pyrrolo[1,2-b]pyrazole-2-carboxamide]
21 | < 1000 | Cn1nc(C(F)(F)F)cc1-c1ccc(C(=O)Nc2ccccc2/C=C/C(=O)NO)s1 [Example I-78, (E)-N-(2-(3-(hydroxyamino)-3-oxoprop-1-en-1-yl)phenyl)-5-(1-methyl-3-(trifluoromethyl)-1H-pyrazol-5-yl)thiophene-2-carboxamide]
22 | < 1000 | Cc1cc(C(=O)Nc2ccccc2/C=C/C(=O)NO)n(C)n1 [Example I-80, (E)-N-(2-(3-(hydroxyamino)-3-oxoprop-1-en-1-yl)phenyl)-1,3-dimethyl-1H-pyrazole-5-carboxamide]
23 | < 1000 | O=C(/C=C/c1ccccc1NC(=O)c1cc2ccccn2n1)NO [Example I-82, (E)-N-(2-(3-(hydroxyamino)-3-oxoprop-1-en-1-yl)phenyl)pyrazolo[1,5-a]pyridine-2-carboxamide]
24 | < 1000 | O=C(/C=C/c1ccccc1NCc1ccc(Cl)cc1)NO [Example I-86, (E)-3-(2-((4-chlorobenzyl)amino)phenyl)-N-hydroxyacrylamide]
25 | < 1000 | CC(C)c1ccc(CNc2ccccc2/C=C/C(=O)NO)nc1 [Example I-87, (E)-N-hydroxy-3-(2-(((5-isopropylpyridin-2-yl)methyl)amino)phenyl)acrylamide]
26 | < 1000 | O=C(/C=C/c1ccccc1NCc1ccnc2ccccc12)NO [Example I-88, (E)-N-hydroxy-3-(2-((quinolin-4-ylmethyl)amino)phenyl)acrylamide]
27 | < 1000 | COc1cncc(CNc2ccccc2/C=C/C(=O)NO)c1 [Example I-90]
28 | < 1000 | O=C(/C=C/c1ccccc1NCc1ccc(-c2ccccn2)cc1)NO [Example I-92, (E)-N-hydroxy-3-(2-((4-(pyridin-2-yl)benzyl)amino)phenyl)acrylamide]
29 | < 1000 | O=C(/C=C/c1ccccc1NCc1ccc(-c2ccccc2)nc1)NO [Example I-99, (E)-N-hydroxy-3-(2-(((6-phenylpyridin-3-yl)methyl)amino)phenyl)acrylamide]
30 | < 1000 | O=C(/C=C/c1ccccc1NCc1cc2cccnc2[nH]1)NO [Example I-102, (E)-3-(2-(((1H-pyrrolo[2,3-b]pyridin-2-yl)methyl)amino)phenyl)-N-hydroxyacrylamide]
31 | < 1000 | CC(C)Nc1ncc(CNc2ccccc2/C=C/C(=O)NO)cn1 [Example I-105, (E)-N-hydroxy-3-(2-(((2-(isopropylamino)pyrimidin-5-yl)methyl)amino)phenyl)acrylamide]
32 | < 1000 | O=C(/C=C/c1ccccc1NCC1CCOC1)NO (centres unmarked) [Example I-106, (E)-N-hydroxy-3-(2-(((tetrahydrofuran-3-yl)methyl)amino)phenyl)acrylamide]
33 | < 1000 | NC(=O)C1CCC2(CC1)CCN(c1ccccc1/C=C/C(=O)NO)CC2 [Example I-108, (E)-3-(2-(3-(hydroxyamino)-3-oxoprop-1-en-1-yl)phenyl)-3-azaspiro[5.5]undecane-9-carboxamide]
34 | < 1000 | CC(C)(C)OC(=O)N1CCCC2(CCN(c3ccccc3/C=C/C(=O)NO)CC2)C1 [Example I-109, tert-butyl (E)-9-(2-(3-(hydroxyamino)-3-oxoprop-1-en-1-yl)phenyl)-2,9-diazaspiro[5.5]undecane-2-carboxylate]
35 | < 1000 | O=C(/C=C/c1ccccc1N1CCC2(CCCNC2)CC1)NO [Example I-110, (E)-3-(2-(2,9-diazaspiro[5.5]undecan-9-yl)phenyl)-N-hydroxyacrylamide 2,2,2-trifluoroacetate]
